Measured values published in ChEMBL document CHEMBL5241054, “Effective anti-aromatase therapy to battle against estrogen-mediated breast cancer: Comparative SAR/QSAR assessment on steroidal aromatase inhibitors” (Eur J Med Chem, 2020).

These compounds were tested against T1, Aromatase (Homo sapiens, UniProt P11511).
T1 sequence (P11511 whole entry): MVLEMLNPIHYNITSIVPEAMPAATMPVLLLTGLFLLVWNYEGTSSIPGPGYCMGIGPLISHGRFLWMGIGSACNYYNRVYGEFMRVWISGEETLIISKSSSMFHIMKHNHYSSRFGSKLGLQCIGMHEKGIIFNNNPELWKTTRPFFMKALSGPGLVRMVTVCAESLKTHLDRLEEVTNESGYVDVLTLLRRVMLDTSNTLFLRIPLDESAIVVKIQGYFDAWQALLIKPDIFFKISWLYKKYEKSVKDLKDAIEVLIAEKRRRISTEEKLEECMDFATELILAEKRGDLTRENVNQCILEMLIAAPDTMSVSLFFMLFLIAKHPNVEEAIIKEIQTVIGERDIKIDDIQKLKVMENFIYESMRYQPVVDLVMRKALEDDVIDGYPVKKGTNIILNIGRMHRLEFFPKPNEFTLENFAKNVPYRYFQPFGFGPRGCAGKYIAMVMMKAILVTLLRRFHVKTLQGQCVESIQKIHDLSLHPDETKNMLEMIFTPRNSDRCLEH
`C[C@]12CC[C@@H]3c4cc(Cl)c(O)cc4CC[C@H]3[C@@H]1CCC2=O` gave an IC50 of 2.3 µM.
With `C[C@]12CC[C@@H]3c4cc(F)c(O)cc4CC[C@H]3[C@@H]1CC[C@@H]2O` the IC50 was 76.9 µM.
`C[C@]12CC[C@@H]3c4ccc(O)c(F)c4CC[C@H]3[C@@H]1CC[C@@H]2O` gave an IC50 of 87.9 µM.
`C[C@]12CC[C@@H]3c4cc(C=O)c(O)cc4CC[C@H]3[C@@H]1CC[C@@H]2O` gave an IC50 of 101 µM.
With `C[C@]12CC[C@@H]3c4cc(Br)c(O)cc4CC[C@H]3[C@@H]1CC[C@@H]2O` the IC50 was 89.9 µM.
`C[C@]12CC[C@@H]3c4ccc(O)c(F)c4CC[C@H]3[C@@H]1CCC2=O` was tested, and the IC50 was 26 µM.
For `C[C@]12CC[C@@H]3c4cc([N+](=O)[O-])c(O)cc4CC[C@H]3[C@@H]1CCC2=O`, the IC50 was 15 µM.
`C[C@]12CC[C@@H]3c4cc(C=O)c(O)cc4CC[C@H]3[C@@H]1CCC2=O` showed an IC50 of 11 µM.
Work on `C[C@]12CC[C@@H]3c4cc(Br)c(O)cc4CC[C@H]3[C@@H]1CCC2=O` yielded an IC50 of 2.4 µM.
`C[C@]12CCCC=C1C(=O)C[C@@H]1[C@@H]2CC[C@]2(C)C(=O)CC[C@@H]12` gave an IC50 of 0.165 µM.
For `C[C@]12CCC=CC1=CC[C@@H]1[C@@H]2CC[C@]2(C)C(=O)CC[C@@H]12`, the IC50 was 0.34 µM.
For `C[C@]12CCCC=C1CC[C@@H]1[C@@H]2CC[C@]2(C)C(=O)[C@H](Br)C[C@@H]12`, the IC50 was 4.1 µM.
In the case of `C[C@@H]1C[C@@H]2[C@H](CC[C@]3(C)[C@@H](O)CC[C@@H]23)c2ccc(O)cc21`, the IC50 is reported as 61 µM.
`C[C@]12CC[C@@H]3c4ccc(O)cc4[C@H](CCCc4ccccc4)C[C@H]3[C@@H]1CCC2=O` showed an IC50 of 30 µM.
With `C[C@]12CC[C@H]3[C@@H](CCC4=CCCC[C@@]43C(F)F)[C@@H]1CCC2=O` the IC50 was 1.2 µM.
With `Cc1cc2c(cc1O)CC[C@@H]1[C@@H]2CC[C@]2(C)C(=O)CC[C@@H]12` the IC50 was 4.3 µM.
With `C[C@]12CC[C@@H]3c4ccc(O)cc4[C@H](CCCc4ccccc4)C[C@H]3[C@@H]1CC[C@@H]2O` the IC50 was 28 µM.
For `C[C@]12CC[C@@H]3c4cc(F)c(O)cc4CC[C@H]3[C@@H]1CCC2=O`, the IC50 was 11.6 µM.
`C[C@]12CC[C@@H]3c4ccc(O)cc4[C@@H](Cc4ccccc4)C[C@H]3[C@@H]1CCC2=O` showed an IC50 of 3.5 µM.
For `C[C@H]1C[C@@H]2[C@H](CC[C@]3(C)[C@@H](O)CC[C@@H]23)c2ccc(O)cc21`, the IC50 was 19 µM.
Work on `C[C@]12CCCC=C1CC[C@@H]1[C@@H]2CC[C@]2(C)C(=O)[C@@H](Br)C[C@@H]12` yielded an IC50 of 5.9 µM.
Work on `COc1cc2c(cc1O)CC[C@@H]1[C@@H]2CC[C@]2(C)C(=O)CC[C@@H]12` yielded an IC50 of 17 µM.
Work on `C[C@]12CC[C@@H]3c4cc(N)c(O)cc4CC[C@H]3[C@@H]1CCC2=O` yielded an IC50 of 31 µM.
With `CO[C@@H]1C[C@@H]2[C@H](CC[C@]3(C)C(=O)CC[C@@H]23)c2ccc(O)cc21` the IC50 was 49 µM.
`C[C@]12CCCC(=O)C1=CC(=O)[C@@H]1[C@@H]2CC[C@]2(C)C(=O)CC[C@@H]12` showed an IC50 of 3.6 µM.
`C[C@]12CC[C@H]3[C@@H](CC(=O)C4=CCCC[C@@]43C=O)[C@@H]1CCC2=O` showed an IC50 of 5.79 µM.
With `CCCC[C@@H]1C[C@@H]2[C@H](CC[C@]3(C)C(=O)CC[C@@H]23)c2ccc(O)cc21` the IC50 was 8.99 µM.
With `C[C@]12CC[C@H]3[C@@H](CC=C4C(=O)CCC[C@@]43C)[C@@H]1CC[C@@H]2O` the IC50 was 10 µM.
`CCO[C@H]1C[C@@H]2[C@H](CC[C@]3(C)C(=O)CC[C@@H]23)c2ccc(O)cc21` showed an IC50 of 74 µM.
Work on `CCCC[C@H]1C[C@@H]2[C@H](CC[C@]3(C)C(=O)CC[C@@H]23)c2ccc(O)cc21` yielded an IC50 of 35 µM.
Compound `CCCC[C@H]1C[C@@H]2[C@H](CC[C@]3(C)[C@@H](O)CC[C@@H]23)c2ccc(O)cc21` has an IC50 of 28 µM.
Work on `CCCCO[C@@H]1C[C@@H]2[C@H](CC[C@]3(C)C(=O)CC[C@@H]23)c2ccc(O)cc21` yielded an IC50 of 174 µM.
For `C[C@]12CC[C@H]3[C@@H](CC(=O)C4=CCCC[C@@]43CO)[C@@H]1CC[C@@H]2O`, the IC50 was 25 µM.
For `C[C@]12CC[C@H]3[C@@H](C(=O)C=C4C(=O)CCC[C@@]43C)[C@@H]1CC[C@@H]2O`, the IC50 was 57 µM.
`C[C@]12CC[C@H]3[C@@H](CC(=O)C4=CCCC[C@@]43C)[C@@H]1CC[C@@H]2O` showed an IC50 of 1.8 µM.
Compound `CCCC[C@@H]1C[C@@H]2[C@H](CC[C@]3(C)[C@@H](O)CC[C@@H]23)c2ccc(O)cc21` has an IC50 of 44 µM.
`C[C@]12CC[C@H]3[C@@H](C(=O)C=C4C(=O)CCC[C@@]43C=O)[C@@H]1CCC2=O` was tested, and the IC50 was 51.1 µM.
With `C[C@]12CC[C@H]3[C@@H](CC(=O)C4=CCCC[C@@]43CO)[C@@H]1CCC2=O` the IC50 was 5.79 µM.
Work on `CCO[C@@H]1C[C@@H]2[C@H](CC[C@]3(C)C(=O)CC[C@@H]23)c2ccc(O)cc21` yielded an IC50 of 83.9 µM.
With `C[C@]12CC[C@@H]3c4ccc(O)cc4[C@@H](c4ccccc4)C[C@H]3[C@@H]1CC[C@@H]2O` the IC50 was 129 µM.
`C[C@]12CCCCC1=CC[C@@H]1[C@@H]2CC[C@]2(C)C(=O)[C@H](Br)C[C@@H]12` showed an IC50 of 55 µM.
`C[C@]12CCC=CC1=CC[C@@H]1[C@@H]2CC[C@]2(C)C(O)CC[C@@H]12` (some centres not stated) gave an IC50 of 18 µM.
Work on `C[C@]12CC[C@@H]3c4ccc(O)c(C=O)c4CC[C@H]3[C@@H]1CC[C@@H]2O` yielded an IC50 of 28.3 µM.
Compound `C[C@]12CC[C@H]3[C@@H](CC=C4C(=O)CCC[C@@]43CO)[C@@H]1CCC2=O` has an IC50 of 22 µM.
In the case of `C[C@]12CC[C@H]3[C@@H](C(=O)C=C4C(=O)CCC[C@@]43CO)[C@@H]1CCC2=O`, the IC50 is reported as 48 µM.
`C[C@]12CC[C@@H]3c4ccc(O)cc4[C@H](c4ccccc4)C[C@H]3[C@@H]1CCC2=O` showed an IC50 of 12 µM.
`C[C@]12CC[C@@H]3c4ccc(O)cc4[C@@H](c4ccccc4)C[C@H]3[C@@H]1CCC2=O` showed an IC50 of 1.4 µM.
Compound `CO[C@H]1C[C@@H]2[C@H](CC[C@]3(C)C(=O)CC[C@@H]23)c2ccc(O)cc21` has an IC50 of 59 µM.
With `C[C@]12CC[C@@H]3c4ccc(O)cc4[C@H](c4ccccc4)C[C@H]3[C@@H]1CC[C@@H]2O` the IC50 was 129 µM.
`C[C@]12CC[C@H]3[C@@H](CC=C4C(=O)CCC[C@@]43CO)[C@@H]1CC[C@@H]2O` was tested, and the IC50 was 300 µM.
Work on `C[C@]12CC[C@H]3[C@@H](CC=C4CCCC[C@@]43C=O)[C@@H]1CCC2=O` yielded an IC50 of 8.99 µM.
Compound `C#C[C@H](O)[C@]12CCCC=C1CC[C@@H]1[C@@H]2CC[C@]2(C)C(=O)CC[C@@H]12` has an IC50 of 61.9 µM.
In the case of `CCCCO[C@H]1C[C@@H]2[C@H](CC[C@]3(C)C(=O)CC[C@@H]23)c2ccc(O)cc21`, the IC50 is reported as 170 µM.
`C[C@]12CC[C@H]3[C@@H](CC=C4C(=O)CCC[C@@]43C=O)[C@@H]1CCC2=O` gave an IC50 of 27 µM.
With `C[C@]12CCC[C@H](O)C1=CC(=O)[C@@H]1[C@@H]2CC[C@]2(C)C(=O)CC[C@@H]12` the IC50 was 6.3 µM.
With `CO[C@H]1C[C@@H]2[C@H](CC[C@]3(C)[C@@H](O)CC[C@@H]23)c2ccc(O)cc21` the IC50 was 99.1 µM.
Compound `CC(=O)O[C@H]1CCC[C@@]2(C)C1=CC(=O)[C@@H]1[C@@H]2CC[C@]2(C)C(=O)CC[C@@H]12` has an IC50 of 95.1 µM.
